The text below walks through data of publication PMC10983791 (ACS chemical biology, 2023).

Entries after “also recorded” stand apart in the source; their conditions may differ.

Type in all cases: biochemical
For test [1], the target named is T1, GNMT (Homo sapiens, UniProt Q14749).
T1 sequence (Q14749 1-295): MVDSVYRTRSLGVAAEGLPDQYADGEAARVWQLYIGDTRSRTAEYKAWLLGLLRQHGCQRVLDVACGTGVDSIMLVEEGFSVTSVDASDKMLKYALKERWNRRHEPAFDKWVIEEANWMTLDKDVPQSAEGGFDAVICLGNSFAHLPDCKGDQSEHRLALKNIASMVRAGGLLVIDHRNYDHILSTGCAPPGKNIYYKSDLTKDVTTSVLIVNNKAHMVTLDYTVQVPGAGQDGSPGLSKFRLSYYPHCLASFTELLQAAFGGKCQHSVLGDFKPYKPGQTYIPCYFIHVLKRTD
Briefly: KM determination by method of initial rates, GNMT. Conditions: read-out: KM, substrate, SAM 100 μM, MTase-Glo readout.

The target in test [2] is T1, GNMT. Briefly: LC-MS orthogonal assay, GNMT.
In test [3] the target is T2, PNMT (Homo sapiens, UniProt P11086).
T2 sequence (P11086 1-282): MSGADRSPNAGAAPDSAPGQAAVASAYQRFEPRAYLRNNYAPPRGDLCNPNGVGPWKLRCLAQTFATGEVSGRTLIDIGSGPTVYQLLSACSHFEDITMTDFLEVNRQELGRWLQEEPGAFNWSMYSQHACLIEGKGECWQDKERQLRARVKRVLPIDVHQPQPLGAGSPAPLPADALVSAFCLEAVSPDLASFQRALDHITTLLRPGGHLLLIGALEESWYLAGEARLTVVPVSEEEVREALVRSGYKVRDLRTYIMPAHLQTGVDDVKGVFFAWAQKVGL
Briefly: LC-MS orthogonal assay, PNMT.

Test [4] deals with T3, HNMT (Homo sapiens, UniProt P50135). Briefly: MTase-Glo HNMT inhibition assay. Conditions: for HNMT activity and specificity in SAR analysis: SAR expansion of diazepine chemotype; for potency loss: relative to the best analogs with pyridine nitrogen; for activity in HTS and follow-up: MTase-Glo, top dose 40 μM.
T3 sequence (P50135 whole entry): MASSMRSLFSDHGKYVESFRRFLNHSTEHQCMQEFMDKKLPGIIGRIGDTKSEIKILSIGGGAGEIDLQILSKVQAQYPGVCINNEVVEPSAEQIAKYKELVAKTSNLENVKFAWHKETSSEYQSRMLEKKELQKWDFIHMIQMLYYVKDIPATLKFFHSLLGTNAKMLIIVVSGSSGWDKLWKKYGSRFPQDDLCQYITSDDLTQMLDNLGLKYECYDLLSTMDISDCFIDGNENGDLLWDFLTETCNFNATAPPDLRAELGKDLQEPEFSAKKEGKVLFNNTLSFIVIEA
Test [5] has as its target T4, COMT (Homo sapiens, UniProt P21964).
T4 sequence (P21964 1-271): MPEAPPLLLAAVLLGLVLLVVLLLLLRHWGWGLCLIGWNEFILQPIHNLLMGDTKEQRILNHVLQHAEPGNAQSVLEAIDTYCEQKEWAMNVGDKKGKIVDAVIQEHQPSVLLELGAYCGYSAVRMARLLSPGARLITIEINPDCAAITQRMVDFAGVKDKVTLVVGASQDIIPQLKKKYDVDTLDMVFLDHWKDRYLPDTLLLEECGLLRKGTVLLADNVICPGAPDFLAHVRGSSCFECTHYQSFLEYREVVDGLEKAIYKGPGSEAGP
Briefly: LC-MS orthogonal assay, COMT.

Test [6] addresses T5, NNMT (Homo sapiens, UniProt P40261).
T5 sequence (P40261 1-264): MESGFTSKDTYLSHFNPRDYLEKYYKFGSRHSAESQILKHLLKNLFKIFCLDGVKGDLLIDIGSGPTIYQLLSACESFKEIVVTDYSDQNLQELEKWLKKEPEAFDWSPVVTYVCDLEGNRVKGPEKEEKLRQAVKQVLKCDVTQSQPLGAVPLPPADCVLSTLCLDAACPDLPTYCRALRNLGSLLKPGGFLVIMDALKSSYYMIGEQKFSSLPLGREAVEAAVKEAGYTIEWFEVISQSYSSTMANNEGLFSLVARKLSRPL
Briefly: LC-MS orthogonal assay, NNMT.

For test [7], the target named is T3, HNMT. Briefly: LC-MS orthogonal assay, HNMT. Conditions: for response in MS assay: LC-MS dose response.
Test [8] deals with T4, COMT. Briefly: MTase-Glo COMT inhibition assay. Conditions: for activity in HTS and follow-up: MTase-Glo, top dose 40 μM.
For test [9], the target named is T2, PNMT. Briefly: MTase-Glo PNMT inhibition assay. Conditions: for activity in HTS and follow-up: MTase-Glo, top dose 40 μM.
Test [10] concerns the target T5, NNMT. Briefly: MTase-Glo NNMT inhibition assay. Conditions: for activity in HTS and follow-up: MTase-Glo, top dose 40 μM.
Test [11] concerns the target GAMT (Homo sapiens, UniProt Q14353). Briefly: MTase-Glo GAMT inhibition assay. Conditions: for activity in HTS and follow-up: MTase-Glo, top dose 40 μM.
The target of test [12] is T1, GNMT. Briefly: MTase-Glo GNMT inhibition assay. Conditions: for activity in HTS and follow-up: MTase-Glo, top dose 40 μM.
The subject of test [13] is MTase-Glo coupled reporter assay. Briefly: MTase-Glo counter-assay. Conditions: 1 μM SAH in place of enzyme; for result in counter-assay replicates: two counter-assay replicates.
The mark [14] stands for this setting: 11-point dose response, up to 50 μM.

Consider `NCC(=O)O` [Glycine], for which, in [1], the Km (usually the concentration of substrate that gives half-maximal velocity) is > 500 µM.
Take `c1cncc(Nc2cc3c(cn2)CN(Cc2ccsc2)CCN3)c1` [NCGC00411044]: the “response in MS assay” value in [2], in test [3], in test [5] and in test [6] was “No response” in each case. Further, the “HNMT activity and specificity in SAR analysis” value (“HNMT activity and specificity” below) in test [4] (11-point dose response) is listed as “most active HNMT-selective compounds; also recorded: showed best activity”. Moreover, the IC50 (in general, the concentration needed to halve the response being measured) in test [4] (read-out: IC50, MTase Glo assay) was 2450 nM; in test [7] (read-out: IC50, MS assay, LC-MS readout of SAH, n=3) it was 670 nM.
As to `c1ccc(Nc2cc3c(cn2)CN(Cc2c[nH]c4ccccc24)CCN3)cc1` [NCGC00411050], the potency loss result in [4] is “at least 10 fold”.
As to `c1ccc(Nc2cc3c(cn2)CN(Cc2cc[nH]n2)CCN3)cc1` [NCGC00411115], the potency loss entry in test [4] was “at least 10 fold”.
Take `c1cncc(Nc2cc3c(cn2)CN(CC2CCOC2)CCN3)c1` (centres unmarked) [NCGC00411147]: in test [4] (11-point dose response), the “HNMT activity and specificity” value is “potency loss”.
The same measure, in the same setting: with `Cn1cc(CN2CCNc3cc(Nc4cccnc4)ncc3C2)cn1` [NCGC00411154] the entry was “reduce activity”.
`Fc1ccccc1CN1CCNc2cc(Nc3cccnc3)ncc2C1` [NCGC00411168]: in test [4] (11-point dose response), the “HNMT activity and specificity” value was “showed best activity”.
As for `Cc1cc(-c2cc3c(cn2)CN(Cc2cccs2)CCN3)ccn1` [NCGC00411196], the potency loss entry in test [4] is given as “at least 10 fold”.
On the same count and under the same terms, the entry for `Oc1ccccc1CN1CCNc2cc(Nc3ccccc3)ncc2C1` [NCGC00411199] is “at least 10 fold”.
For `c1cncc(Nc2cc3c(cn2)CN(Cc2c[nH]c4ccccc24)CCN3)c1` [NCGC00411220], the “HNMT activity and specificity” value in test [4] (11-point dose response) was “reduced specificity”.
Consider `COc1ccc(C(=O)Nc2cnn(-c3ncncc3N3CCC(C)CC3)c2)cc1` [NCGC00519772], for which the “response in MS assay” value in test [2], in test [3], in test [5], in test [6] and in test [7] was “did not inhibit any SMMTase” throughout. Further, the “activity in HTS and follow-up” value in test [8], in [9], in [4], in test [10], in test [11] and in test [12] was “showed activity against all of the SMMTases tested” in each case. The “result in counter-assay replicates” value in test [13] is listed as “conflicting results”.
As for `Cc1ccc(C(=O)Nc2cnn(-c3ncncc3N3CCC(C)CC3)c2)s1` [NCGC00519779], the “response in MS assay” value in test [2], in test [3], in test [5], in [6] and in test [7] was “did not inhibit any SMMTase” each time. Also, the “activity in HTS and follow-up” value in [8], in test [9], in test [4], in [10], in test [11] and in test [12] was “showed activity against all of the SMMTases tested” throughout. In addition, in test [13], the “result in counter-assay replicates” value is “conflicting results”.
As for `Nc1ncnc2c1ncn2[C@@H]1O[C@H](C[C@@H](N)CC[C@H](N)C(=O)O)[C@@H](O)[C@H]1O` [sinefungin, reference compound], the “inhibition by positive control” value in test [8] (setting [14]) is on record as “inhibitable”; in test [9] (setting [14]), “inhibitable”; in test [4] (setting [14]), “inhibitable”; in test [10] (setting [14]), “inhibitable”; in test [11] (setting [14]) it was “inhibitable”; in test [12] (setting [14]), “All MTases except GNMT were inhibitable”. For the same compound, the “inhibition of counter-assay by positive control” value in [13] is “not inhibited”.
